Several values for one entry are separate records, joined by “and”; a condition that tells them apart may be missing. Equal values may be shown once. Inconclusive results and toxic doses are left out. The calls were made as follows: active = survival T/C of 150% or more; inactive = T/C below 125% in these data.
Test system: P388 leukemia ip, CD2F1 mice, survival T/C
Assay: NCI In Vivo Anticancer Drug Screen. Data for tumor model P388 Leukemia (intraperitoneal) in CD2F1 (CDF1) mice
Settings: endpoint: median survival time, higher = longer survival
Procedure, shortened: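 Mice carrying the transplanted tumor received test compound or vehicle. Survival was recorded in each group, and the value is the treated-group measurement divided by that of the vehicle-treated control group.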

[1] = dose: 50.0 mg/kg/injection, schedule: Q01DX009 (ip), vehicle: saline with Tween-80
[2] = dose: 25.0 mg/kg/injection, schedule: Q01DX005 (ip), vehicle: Klucel (hydroxypropylcellulose) (HPC)
[3] = dose: 50.0 mg/kg/injection, schedule: Q01DX005 (ip), vehicle: Klucel (hydroxypropylcellulose) (HPC)
[4] = dose: 25.0 mg/kg/injection, schedule: Q01DX009 (ip), vehicle: saline
[5] = dose: 50.0 mg/kg/injection, schedule: Q01DX009 (ip), vehicle: saline
[6] = dose: 50.0 mg/kg/injection, schedule: Q01DX005 (ip), vehicle: saline with Tween-80
[7] = dose: 100.0 mg/kg/injection, schedule: Q01DX005 (ip), vehicle: saline with Tween-80
[8] = dose: 200.0 mg/kg/injection, schedule: Q01DX005 (ip), vehicle: saline with Tween-80
[9] = dose: 15.0 mg/kg/injection, schedule: Q01DX005 (ip), vehicle: saline with Tween-80
[10] = dose: 30.0 mg/kg/injection, schedule: Q01DX005 (ip), vehicle: saline with Tween-80
[11] = dose: 60.0 mg/kg/injection, schedule: Q01DX005 (ip), vehicle: saline with Tween-80
[12] = dose: 120.0 mg/kg/injection, schedule: Q01DX005 (ip), vehicle: saline with Tween-80
[13] = dose: 100.0 mg/kg/injection, schedule: Q01DX005 (ip), vehicle: Klucel (hydroxypropylcellulose) (HPC)
[14] = dose: 200.0 mg/kg/injection, schedule: Q01DX005 (ip), vehicle: Klucel (hydroxypropylcellulose) (HPC)
[15] = dose: 200.0 mg/kg/injection, schedule: Q01DX009 (ip), vehicle: saline with Tween-80
[16] = dose: 60.0 mg/kg/injection, schedule: Q01DX005 (ip), vehicle: Klucel (hydroxypropylcellulose) (HPC)
[17] = dose: 120.0 mg/kg/injection, schedule: Q01DX005 (ip), vehicle: Klucel (hydroxypropylcellulose) (HPC)

Measured: T/C

Oc1c(CN2CCCCC2)ccc2cccnc12
inactive: dose: 0.78 mg/kg/injection, schedule: Q01DX009 (ip), vehicle: saline with Tween-80 107 % of control and 92 % of control | dose: 1.56 mg/kg/injection, schedule: Q01DX009 (ip), vehicle: saline with Tween-80 99 % of control and 97 % of control | dose: 3.12 mg/kg/injection, schedule: Q01DX009 (ip), vehicle: saline with Tween-80 107 % of control | dose: 6.25 mg/kg/injection, schedule: Q01DX009 (ip), vehicle: saline with Tween-80 99 % of control and 110 % of control and 122 % of control | dose: 12.5 mg/kg/injection, schedule: Q01DX009 (ip), vehicle: saline with Tween-80 99 % of control and 106 % of control and 108 % of control | dose: 25.0 mg/kg/injection, schedule: Q01DX009 (ip), vehicle: saline with Tween-80 113 % of control | [1] 113 % of control

COc1cccc(/C=N/NC(=S)Nc2cc(C(F)(F)F)cc(C(F)(F)F)c2)c1O
inactive: [2] 93 % of control | [3] 100 % of control and 93 % of control

O=C1NC(CCO)C(=O)NC1CCO (configuration not stated)
inactive: dose: 50.0 mg/kg/injection, schedule: Q01DX005 (ip), vehicle: saline 100 % of control | dose: 100.0 mg/kg/injection, schedule: Q01DX005 (ip), vehicle: saline 100 % of control | dose: 200.0 mg/kg/injection, schedule: Q01DX005 (ip), vehicle: saline 106 % of control

OCCSCc1cnc2ccccn12
inactive: [4] 105 % of control | [5] 100 % of control

COc1cc(C(NC(=O)N2C(=O)C=CC2=O)NC(=O)N2C(=O)C=CC2=O)ccc1O
inactive: [6] 106 % of control | [7] 100 % of control | [8] 100 % of control

COc1cc(C2c3c(oc4ccccc4c3=O)Oc3oc4ccccc4c(=O)c32)cc(OC)c1O
inactive: [9] 92 % of control | [10] 96 % of control | [11] 92 % of control | [12] 95 % of control | dose: 240.0 mg/kg/injection, schedule: Q01DX005 (ip), vehicle: saline with Tween-80 98 % of control

O=C(Nc1ncc([N+](=O)[O-])s1)c1ccc([N+](=O)[O-])cc1
inactive: dose: 12.5 mg/kg/injection, schedule: Q01DX009 (ip), vehicle: saline 100 % of control | [4] 97 % of control | [5] 104 % of control

CCOc1cc2c(cc1C(C)c1ccc(OC)c(C)c1)OCO2 (configuration not stated)
inactive: dose: 12.5 mg/kg/injection, schedule: Q01DX005 (ip), vehicle: Klucel (hydroxypropylcellulose) (HPC) 92 % of control | [2] 91 % of control | [3] 102 % of control and 111 % of control | [13] 101 % of control and 112 % of control | [14] 101 % of control and 114 % of control

COC1C(=O)OC(=O)C1OC (configuration not stated)
inactive: dose: 15.0 mg/kg/injection, schedule: Q01DX005 (ip), vehicle: saline 109 % of control and 117 % of control | dose: 30.0 mg/kg/injection, schedule: Q01DX005 (ip), vehicle: saline 102 % of control and 117 % of control | dose: 60.0 mg/kg/injection, schedule: Q01DX005 (ip), vehicle: saline 100 % of control and 109 % of control and 90 % of control

C[C@]12Cc3cnc(N)nc3C[C@@H]1CC[C@@H]1[C@@H]2CC[C@@]2(C)[C@H]1CC[C@]2(C)O
inactive: [6] 99 % of control | [7] 89 % of control | [8] 89 % of control

C[C@@]12CCC[C@@](C)(C(=O)O)[C@H]1CC[C@]13C[C@@H](CO)[C@@H](CC[C@H]12)C3
inactive: [3] 99 % of control | [13] 90 % of control | [14] 87 % of control

O=C(/C(=N/Nc1ccccc1)C(=S)Nc1ccccc1)c1ccccc1
inactive: dose: 3.13 mg/kg/injection, schedule: Q01DX005 (ip), vehicle: saline with Tween-80 99 % of control | dose: 6.25 mg/kg/injection, schedule: Q01DX005 (ip), vehicle: saline with Tween-80 95 % of control | dose: 12.5 mg/kg/injection, schedule: Q01DX005 (ip), vehicle: saline with Tween-80 91 % of control and 92 % of control | dose: 25.0 mg/kg/injection, schedule: Q01DX005 (ip), vehicle: saline with Tween-80 90 % of control | [6] 89 % of control and 93 % of control | [8] 90 % of control

Cn1c(N)c(N=Nc2ccccc2Cl)c(=O)n(C)c1=O
inactive: [1] 104 % of control | dose: 100.0 mg/kg/injection, schedule: Q01DX009 (ip), vehicle: saline with Tween-80 99 % of control | [15] 95 % of control

CCn1c2ccccc2c2ccc(N=Cc3ccccc3[N+](=O)[O-])cc21
inactive: dose: 100.0 mg/kg/injection, schedule: Q04DX003 (ip), vehicle: Klucel (hydroxypropylcellulose) (HPC) 98 % of control | dose: 200.0 mg/kg/injection, schedule: Q04DX003 (ip), vehicle: Klucel (hydroxypropylcellulose) (HPC) 97 % of control | dose: 400.0 mg/kg/injection, schedule: Q04DX003 (ip), vehicle: Klucel (hydroxypropylcellulose) (HPC) 96 % of control

CCCCCN(C)/N=N/c1nc[nH]c1C(N)=O
inactive: dose: 100.0 mg/kg/injection, schedule: Q04DX003 (ip), vehicle: saline with Tween-80 120 % of control | dose: 200.0 mg/kg/injection, schedule: Q04DX003 (ip), vehicle: saline with Tween-80 110 % of control | dose: 600.0 mg/kg/injection, schedule: Q04DX003 (ip), vehicle: saline with Tween-80 90 % of control

CCCCNC(=S)NC1C2CC3CC(C2)CC1C3 (configuration not stated)
inactive: dose: 50.0 mg/kg/injection, schedule: Q01DX009 (ip), vehicle: Klucel (hydroxypropylcellulose) (HPC) 97 % of control | dose: 100.0 mg/kg/injection, schedule: Q01DX009 (ip), vehicle: Klucel (hydroxypropylcellulose) (HPC) 98 % of control | dose: 200.0 mg/kg/injection, schedule: Q01DX009 (ip), vehicle: Klucel (hydroxypropylcellulose) (HPC) 101 % of control

Clc1cc(=Nc2ccccc2)n2ccccc2n1
inactive: [16] 96 % of control | [17] 99 % of control | dose: 240.0 mg/kg/injection, schedule: Q01DX005 (ip), vehicle: Klucel (hydroxypropylcellulose) (HPC) 97 % of control

CCC1C2CC3C4N(C)c5ccccc5C45CC(C2C5O)N3C1O (configuration not stated)
inactive: dose: 0.31 mg/kg/injection, schedule: Q01DX009 (ip), vehicle: saline 102 % of control and 106 % of control | dose: 0.62 mg/kg/injection, schedule: Q01DX009 (ip), vehicle: saline 99 % of control and 106 % of control and 121 % of control | dose: 1.25 mg/kg/injection, schedule: Q01DX009 (ip), vehicle: saline 102 % of control and 106 % of control and 95 % of control | dose: 2.5 mg/kg/injection, schedule: Q01DX009 (ip), vehicle: saline 99 % of control and 105 % of control (2×) | dose: 5.0 mg/kg/injection, schedule: Q01DX009 (ip), vehicle: saline 102 % of control | dose: 10.0 mg/kg/injection, schedule: Q01DX009 (ip), vehicle: saline 105 % of control | [9] 100 % of control | [10] 94 % of control | [11] 93 % of control and 100 % of control | [12] 93 % of control

OCC12COCN1COC2
inactive: [5] 106 % of control and 92 % of control | dose: 100.0 mg/kg/injection, schedule: Q01DX009 (ip), vehicle: saline 106 % of control and 111 % of control | dose: 200.0 mg/kg/injection, schedule: Q01DX009 (ip), vehicle: saline 108 % of control and 118 % of control | dose: 400.0 mg/kg/injection, schedule: Q01DX009 (ip), vehicle: saline 123 % of control

CC(Cc1ccccc1)NC(=O)c1ccncc1 (configuration not stated)
inactive: [6] 103 % of control | [7] 102 % of control | [8] 100 % of control

CCC(=O)Oc1ccc(C2N(Cc3ccc(N(C)C)cc3)CCCN2Cc2ccc(N(C)C)cc2)cc1
inactive: [1] 90 % of control | [15] 90 % of control

COc1cc2c(cc1O)CC1c3c(cc(OC)c(O)c3C2)CCN1C (configuration not stated)
inactive: dose: 12.5 mg/kg/injection, schedule: Q01DX001 (ip), vehicle: saline with Tween-80 100 % of control | dose: 25.0 mg/kg/injection, schedule: Q01DX001 (ip), vehicle: saline with Tween-80 96 % of control | dose: 50.0 mg/kg/injection, schedule: Q01DX001 (ip), vehicle: saline with Tween-80 97 % of control | dose: 100.0 mg/kg/injection, schedule: Q01DX001 (ip), vehicle: saline with Tween-80 95 % of control

c1ccc2c3c(cc(CNCCNCc4cc5c(c6ccccc46)CCCC5)c2c1)CCCC3
inactive: [6] 87 % of control | [7] 96 % of control | [8] 110 % of control

O=C(Cc1n[nH]c(=S)nc1CC(=O)c1cccnc1)c1cccnc1
inactive: [11] 100 % of control | [12] 96 % of control

CN(C)C(=O)c1ccc(SC(=S)NCc2ccccc2)cc1
inactive: dose: 15.0 mg/kg/injection, schedule: Q01DX005 (ip), vehicle: Klucel (hydroxypropylcellulose) (HPC) 103 % of control | dose: 30.0 mg/kg/injection, schedule: Q01DX005 (ip), vehicle: Klucel (hydroxypropylcellulose) (HPC) 103 % of control | [16] 101 % of control and 104 % of control | [17] 115 % of control
